Results as given in patent publication US11932850B2, “Cancer chemoprevention with STAT3 blockers” (Jill M. Siegfried, LLC, priority 2018, dated 2024).

Legend:
[1] = target: T1, pSTAT3-ubiquitin complexes in H1975 cells (Homo sapiens, UniProt P40763); test: p-STAT3 immunoprecipitation and ubiquitin immunoblot; format: cell-based; conditions: H1975, 100 nM, 24 hr post-transfection
T1 construct: Post-transfection with either 100 nM CS3D or CS3M, H1975 were lysed in IP lysis buffer; endogenous in cells; host or cells: H1975
T1 sequence (P40763 2-770 limits assumed, one chain of several): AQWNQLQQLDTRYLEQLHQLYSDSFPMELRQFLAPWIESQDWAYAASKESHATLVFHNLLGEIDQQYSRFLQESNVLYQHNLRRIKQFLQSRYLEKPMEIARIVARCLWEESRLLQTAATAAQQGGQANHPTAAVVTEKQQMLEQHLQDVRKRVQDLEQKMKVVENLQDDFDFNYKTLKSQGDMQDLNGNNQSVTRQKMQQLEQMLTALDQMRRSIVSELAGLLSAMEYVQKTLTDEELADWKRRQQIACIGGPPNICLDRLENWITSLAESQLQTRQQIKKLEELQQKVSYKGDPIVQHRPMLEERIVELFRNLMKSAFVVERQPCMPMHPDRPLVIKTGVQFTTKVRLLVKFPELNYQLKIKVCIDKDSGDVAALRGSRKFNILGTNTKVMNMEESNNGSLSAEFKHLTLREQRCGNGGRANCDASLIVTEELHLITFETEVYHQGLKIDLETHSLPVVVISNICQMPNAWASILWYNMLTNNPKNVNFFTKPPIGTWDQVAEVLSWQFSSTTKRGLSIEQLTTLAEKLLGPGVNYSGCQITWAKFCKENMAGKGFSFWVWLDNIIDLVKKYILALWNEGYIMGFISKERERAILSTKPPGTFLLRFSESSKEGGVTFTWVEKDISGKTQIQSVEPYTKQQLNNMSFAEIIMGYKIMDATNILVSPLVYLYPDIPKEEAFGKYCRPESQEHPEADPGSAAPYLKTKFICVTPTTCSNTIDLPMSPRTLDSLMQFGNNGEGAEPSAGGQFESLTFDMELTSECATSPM

[2] = tested on: c-Myc in H1975-derived tumors; test: c-Myc expression in H1975 xenograft tumors (Western blot); format: in vivo, nude mice; conditions: H1975 xenograft tumors, range among individual tumors
Description: FIGS. 7C and 7D show c-Myc is suppressed after CS3D treatment in vivo. At the end of the treatments, tumors were harvested, whole cell lysates were prepared and RNA extracted for target gene analysis by Western blotting and RT-qPCR GAPDH protein was used as internal loading control for immunoblotting. CS3D treated tumors (C4, C5, and C6) from separate animals show a decrease in c-Myc expression level relative to the CS3M-treated group (C1, C2, and C3) in 201T. […] Data are shown as mean+/−SEM.
To determine how CS3D blocks NSCLC growth, Western blot, qRT-PCR, and immunohistochemical analysis were performed to determine expression of c-Myc in residual tumors. These analyses identified a substantial downregulation of c-Myc protein (FIGS. 7C and 7D) and mRNA levels (FIG. 7E) in individual CS3D-treated tumors relative to CS3M-treated tumors in both 201T and H1975 xenografts. Some variability in protein levels among individual xenografts was observed (FIGS. 7C and 7D); the densitometry units for c-Myc protein after normalizing for GAPDH levels ranged from 0.11-0.16 units for CS3D-treated xenografts and 0.25-0.46 units for CS3M-treated tumors in H1975. Similarly, in 201T-derived tumors these measurements ranged from 0.015 to 0.51 units for CS3D and 0.28 to 0.97 units for CS3M. Even with this variability, the effect across the groups in both cell lines was significant (P<0.05 for H1975 and P<0.042 for 201T xenografts), with a mean decrease of 65% and 70%, respectively.

[3] = tested on: cleaved caspase-3 in H1975 xenografts; test: IHC of cleaved caspase-3 in H1975 xenografts at end of treatment; format: in vivo, nude mice; conditions: after last day of treatment (day 14)
From the text: For mRNA levels in tumor lysates, CS3D produced a 60-70% reduction of c-Myc gene expression relative to GAPDH compared to CS3M (FIG. 7E). […] Some cleaved caspase 3 staining was localized in nuclei, where caspase-3 is known to be active. Some caspase 3 staining was also evident in fibroblasts.
Immunohistochemical analysis: Tumors were excised for immunohistochemical (IHC) staining; 5-μm (micron) sections were cut from formalin-fixed paraffin-embedded tissue blocks, deparaffinized and rehydrated using successive washes of xylene followed by ethanol. Antigen retrieval was performed in a microwave oven (for 20 minutes) in an unmasking solution containing sodium citrate buffer followed by peroxidase blocking in 3% hydrogen peroxide. The sections were incubated in ABC blocking buffer (Vector laboratories Inc, Burlingame, California) for 1 hour at room temperature. Sections were then stained with H&E (hematoxylin and eosin) or subjected to sequential incubations with different primary antibodies and peroxidase-conjugated goat anti-rabbit secondary antibodies. […] Staining was graded as low (<30% positive cells per field, scored as 1), moderate (30-60% positive cells per field, scored as 2) or high (>60% positive cells per field, scored as 3).

[4] = tested on: Ki-67, p-STAT3, NF-κB in H1975 xenografts; test: IHC of H1975 xenografts after 5 daily iv injections; format: in vivo, nude mice; conditions: H1975 xenografts
Description: Because tumors treated for several weeks with the STAT3 decoy were largely composed of debris (as illustrated in FIG. 11), xenografts were examined after only 5 daily tail vein injections to determine what cellular changes were induced prior to collapse of the intracellular tumor structure. […] Tumors derived from H1975 xenografs were analyzed by immunohistochemical staining for p-STAT3 after 5 daily iv injections of either STAT3 decoy or mutant decoy. […] This effect is quantified in FIG. 9B.
Images were captured at 40× magnification. A shift from 41% of cells was observed and scored as high-grade staining with CS3M treatment to 13% with high-grade staining in the presence of CS3D, with corresponding increases in moderate- and low-grade staining in the STAT3 decoy treated group (FIG. 12B). […] Bright field images were captured at 40× magnification. Frequency of high-grade staining for p-STAT3 differed between CS3D and CS3M treatment groups (23% in CS3D-treated and 51% in CS3M treated, with corresponding increase in low-grade staining in presence of the active decoy (FIG. 9B). Significant degradation of p-STAT3 protein was detected by IHC in tumors was observed after treatment with CS3D. Percent of high staining fields was reduced from 48% to 22% while percent of fields with low staining increased, P<0.001 (FIG. 9B).
Immunohistochemical analysis: Tumors were excised for immunohistochemical (IHC) staining; 5-μm (micron) sections were cut from formalin-fixed paraffin-embedded tissue blocks, deparaffinized and rehydrated using successive washes of xylene followed by ethanol. Antigen retrieval was performed in a microwave oven (for 20 minutes) in an unmasking solution containing sodium citrate buffer followed by peroxidase blocking in 3% hydrogen peroxide. The sections were incubated in ABC blocking buffer (Vector laboratories Inc, Burlingame, California) for 1 hour at room temperature. Sections were then stained with H&E (hematoxylin and eosin) or subjected to sequential incubations with different primary antibodies and peroxidase-conjugated goat anti-rabbit secondary antibodies. The following primary antibodies were used (at the indicated dilutions): cleaved caspase-3 (#9664, Cell Signaling, 1:300), p-STAT3 (#9145, Cell Signaling, 1:400), Ki67 (#ab15580, Abcam, 1:1000). Sections were developed with DAB and counterstained with hematoxylin. Bright field microscopy was performed using Leica DM 4000 B LED microscope and images were captured at 20× and 40× magnification using LASv4.7 software. IHC analysis was done as a blinded study with 100 images from each treatment group graded as low, moderate, or high. Staining was graded as low (<30% positive cells per field, scored as 1), moderate (30-60% positive cells per field, scored as 2) or high (>60% positive cells per field, scored as 3).

[5] = tested on: M1 macrophages, M2 macrophages, MDSCs; test: Flow cytometry of immune cells isolated from lungs of NNK mice; format: in vivo; conditions: NNK 4 weeks then 1 week of drug administration
From the text: STAT3 also plays a central role in immune evasion. STAT3 specifically orchestrates immunosuppression by promoting M2 macrophage and myeloid-derived suppressor cells (MDSCs) activity while suppressing M1 macrophage function [Su et al. Int. J. Mol. Science 19: pll:E1803, 2018]. Thus STAT3 inhibition by CS3D should favor an antitumor immune response by enhancing M1 macrophage activity.
Lungs from mice were digested with RPMI media containing collagenase and DNase to obtained single cell suspension. The cells were counted and 1×10^6 cells were staining with fluorescent labeled CD45, CD11b, MHC II, Ly6C and F4/80. The labeled cells were gated and data acquired on LSR fortessa (BD Biosciences) and further analysed by Flowjo.

[6] = target: STAT3 (Homo sapiens, UniProt P40763); conditions: Leong et al., 2003; cited from earlier work
STAT3, sequence (P40763 whole entry, species assumed): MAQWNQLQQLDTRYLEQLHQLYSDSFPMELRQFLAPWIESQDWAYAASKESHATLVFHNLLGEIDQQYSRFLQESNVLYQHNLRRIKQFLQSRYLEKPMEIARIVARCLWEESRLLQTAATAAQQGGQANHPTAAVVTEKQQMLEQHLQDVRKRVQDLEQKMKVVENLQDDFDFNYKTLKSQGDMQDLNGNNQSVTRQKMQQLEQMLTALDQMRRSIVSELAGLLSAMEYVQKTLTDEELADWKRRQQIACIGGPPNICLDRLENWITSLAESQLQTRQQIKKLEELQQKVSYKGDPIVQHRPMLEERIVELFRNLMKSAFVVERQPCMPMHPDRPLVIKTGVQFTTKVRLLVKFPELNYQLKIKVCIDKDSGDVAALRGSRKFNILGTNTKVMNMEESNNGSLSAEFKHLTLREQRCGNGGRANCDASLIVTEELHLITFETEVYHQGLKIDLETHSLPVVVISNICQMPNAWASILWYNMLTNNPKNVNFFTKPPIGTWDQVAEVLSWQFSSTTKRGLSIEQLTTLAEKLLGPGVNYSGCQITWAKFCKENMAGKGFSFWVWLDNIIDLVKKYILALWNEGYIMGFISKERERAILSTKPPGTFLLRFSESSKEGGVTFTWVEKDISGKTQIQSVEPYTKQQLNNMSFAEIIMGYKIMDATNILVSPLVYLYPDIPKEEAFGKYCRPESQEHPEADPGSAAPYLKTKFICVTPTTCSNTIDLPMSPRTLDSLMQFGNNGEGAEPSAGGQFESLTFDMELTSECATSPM

Substance: CS3M: mutant inactive control of CS3D, T-A base pair replacing G-C base pair at position 9 (SEQ ID NO. 6); unable to bind STAT3 (GATTTAAGGGAAATGCSCATTTCCC; cyclic decoy, mutant control, further chemistry not given here) [reference compound]
- ratio of pSTAT3-ubiquitin complex to STAT3 (densitometry) [1]: 0.74
- c-Myc protein densitometry normalized for GAPDH [2]: 0.25-0.46 units
- fields scoring high level of cleaved caspase-3 [3]: 10%
- Ki-67 high-grade staining ([4]; 5 daily injections): 41%
- frequency of high-grade staining for p-STAT3 ([4]; 5 daily iv injections): 51%
- percent of high staining fields for p-STAT3 ([4]; second statement in b134 (FIG. 9B)): 48%
- M2 macrophages [5]: 18.3%
- MDSCs [5]: 4.56%
- binding to STAT3 [6]: unable to bind STAT3
